Data taken from PubChem BioAssay AID2060483 (Molecular Pharmacology Branch, DTP, NCI, 2025).

System: K24384-001-R-PDC complex spheroids, viability
Assay: Anticancer human tumor K24384-001-R-PDC patient-derived pancreatic adenocarcinoma cell line growth inhibition [GQUAD]
Settings: for IC50: curve of first compound; for viability, T/C: stronger effect = lower value
How it was run: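 Tumor cells were grown as complex spheroids with HUVEC endothelial cells and mesenchymal stem cells as stroma. G-quadruplex stabilizers were combined with targeted agents over half-log dilutions from near the clinical Cmax, or from 10 microM.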

[1] = second compound 0.0316 µM, first compound 0.0316 µM
[2] = second compound 0.0316 µM, first compound 0.316 µM
[3] = second compound 0.1 µM, first compound 0.0316 µM
[4] = second compound 0.1 µM, first compound 0.316 µM
[5] = second compound 0.316 µM, first compound 0.0316 µM
[6] = second compound 0.316 µM, first compound 0.316 µM
[7] = second compound 1 µM, first compound 0.0316 µM
[8] = second compound 1 µM, first compound 0.316 µM
[9] = second compound 3.16 µM, first compound 0.0316 µM
[10] = second compound 3.16 µM, first compound 0.316 µM
[11] = second compound 10 µM, first compound 0.0316 µM
[12] = second compound 10 µM, first compound 0.316 µM
[13] = second compound 0.0316 µM, first compound 0.1 µM
[14] = second compound 0.0316 µM, first compound 1 µM
[15] = second compound 0.0316 µM, first compound 3.16 µM
[16] = second compound 0.0316 µM, first compound 10 µM
[17] = second compound 0.1 µM, first compound 0.1 µM
[18] = second compound 0.1 µM, first compound 1 µM
[19] = second compound 0.1 µM, first compound 3.16 µM
[20] = second compound 0.1 µM, first compound 10 µM
[21] = second compound 0.316 µM, first compound 0.1 µM
[22] = second compound 0.316 µM, first compound 1 µM
[23] = second compound 0.316 µM, first compound 3.16 µM
[24] = second compound 0.316 µM, first compound 10 µM
[25] = second compound 1 µM, first compound 0.1 µM
[26] = second compound 1 µM, first compound 1 µM
[27] = second compound 1 µM, first compound 3.16 µM
[28] = second compound 1 µM, first compound 10 µM
[29] = second compound 3.16 µM, first compound 0.1 µM
[30] = second compound 3.16 µM, first compound 1 µM
[31] = second compound 3.16 µM, first compound 3.16 µM
[32] = second compound 3.16 µM, first compound 10 µM
[33] = second compound 10 µM, first compound 0.1 µM
[34] = second compound 10 µM, first compound 1 µM
[35] = second compound 10 µM, first compound 3.16 µM
[36] = second compound 10 µM, first compound 10 µM
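Further: spheroids exposed to compounds for seven days.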

CC[C@@]1(O)C(=O)OCc2c1cc1n(c2=O)Cc2cc3c(CN(C)C)c(O)ccc3nc2-1 + Cc1[nH]c2ccc(F)cc2c1-c1nc2c3cccnc3c3ncccc3c2[nH]1
IC50 (second compound 0.0316 µM): > 316 nM | IC50 (second compound 0.1 µM): 292 nM | IC50 (second compound 0.316 µM): 233 nM | IC50 (second compound 1 µM): 239 nM | IC50 (second compound 3.16 µM): 139 nM | IC50 (second compound 10 µM): 146 nM | viability, T/C (second compound 0.0316 µM, first compound 0.000999 µM): 102% | viability, T/C (second compound 0.0316 µM, first compound 0.00316 µM): 110% | viability, T/C (second compound 0.0316 µM, first compound 0.00999 µM): 95.7% | viability, T/C [1]: 80.9% | viability, T/C (second compound 0.0316 µM, first compound 0.0999 µM): 61.3% | viability, T/C [2]: 51.2% | viability, T/C (second compound 0.1 µM, first compound 0.000999 µM): 83.5% | viability, T/C (second compound 0.1 µM, first compound 0.00316 µM): 113% | viability, T/C (second compound 0.1 µM, first compound 0.00999 µM): 82.4% | viability, T/C [3]: 87.7% | viability, T/C (second compound 0.1 µM, first compound 0.0999 µM): 65.8% | viability, T/C [4]: 49% | viability, T/C (second compound 0.316 µM, first compound 0.000999 µM): 85.4% | viability, T/C (second compound 0.316 µM, first compound 0.00316 µM): 92.2% | viability, T/C (second compound 0.316 µM, first compound 0.00999 µM): 83.1% | viability, T/C [5]: 82.9% | viability, T/C (second compound 0.316 µM, first compound 0.0999 µM): 68.3% | viability, T/C [6]: 43.4% | viability, T/C (second compound 1 µM, first compound 0.000999 µM): 95.7% | viability, T/C (second compound 1 µM, first compound 0.00316 µM): 92.8% | viability, T/C (second compound 1 µM, first compound 0.00999 µM): 98.8% | viability, T/C [7]: 76.8% | viability, T/C (second compound 1 µM, first compound 0.0999 µM): 59% | viability, T/C [8]: 46.7% | viability, T/C (second compound 3.16 µM, first compound 0.000999 µM): 73.8% | viability, T/C (second compound 3.16 µM, first compound 0.00316 µM): 74.7% | viability, T/C (second compound 3.16 µM, first compound 0.00999 µM): 79.1% | viability, T/C [9]: 81.2% | viability, T/C (second compound 3.16 µM, first compound 0.0999 µM): 53.6% | viability, T/C [10]: 41% | viability, T/C (second compound 10 µM, first compound 0.000999 µM): 78.1% | viability, T/C (second compound 10 µM, first compound 0.00316 µM): 55% | viability, T/C (second compound 10 µM, first compound 0.00999 µM): 66.4% | viability, T/C [11]: 67.4% | viability, T/C (second compound 10 µM, first compound 0.0999 µM): 58.8% | viability, T/C [12]: 31.3%

COc1cc(C2c3cc4c(cc3C(OC3OC5COC(C)OC5C(O)C3O)C3COC(=O)C23)OCO4)cc(OC)c1O (stereo not drawn) + Cc1[nH]c2ccc(F)cc2c1-c1nc2c3cccnc3c3ncccc3c2[nH]1
IC50 (second compound 0.0316 µM): 3000 nM | IC50 (second compound 0.1 µM): 1320 nM | IC50 (second compound 0.316 µM): 1940 nM | IC50 (second compound 1 µM): 2780 nM | IC50 (second compound 3.16 µM): 1860 nM | IC50 (second compound 10 µM): 688 nM | viability, T/C [1]: 104% | viability, T/C [13]: 96% | viability, T/C [2]: 73.3% | viability, T/C [14]: 71% | viability, T/C [15]: 47.1% | viability, T/C [16]: 33.5% | viability, T/C [3]: 90% | viability, T/C [17]: 94.7% | viability, T/C [4]: 68.8% | viability, T/C [18]: 57% | viability, T/C [19]: 37.5% | viability, T/C [20]: 35.9% | viability, T/C [5]: 113% | viability, T/C [21]: 99.5% | viability, T/C [6]: 75.6% | viability, T/C [22]: 59.3% | viability, T/C [23]: 44.1% | viability, T/C [24]: 35.2% | viability, T/C [7]: 85% | viability, T/C [25]: 80.7% | viability, T/C [8]: 68.7% | viability, T/C [26]: 67.6% | viability, T/C [27]: 44.5% | viability, T/C [28]: 38.1% | viability, T/C [9]: 83.2% | viability, T/C [29]: 71.8% | viability, T/C [10]: 67.6% | viability, T/C [30]: 69.6% | viability, T/C [31]: 33.2% | viability, T/C [32]: 30.8% | viability, T/C [11]: 55.4% | viability, T/C [33]: 59.5% | viability, T/C [12]: 53.1% | viability, T/C [34]: 47.7% | viability, T/C [35]: 24.5% | viability, T/C [36]: 19.8%

COc1cccc2c1C(=O)c1c(O)c3c(c(O)c1C2=O)CC(O)(C(=O)CO)CC3OC1CC(N)C(O)C(C)O1 (stereo not drawn) + Cc1[nH]c2ccc(F)cc2c1-c1nc2c3cccnc3c3ncccc3c2[nH]1
IC50 (second compound 0.0316 µM): 191 nM | IC50 (second compound 0.1 µM): 204 nM | IC50 (second compound 0.316 µM): 203 nM | IC50 (second compound 1 µM): 219 nM | IC50 (second compound 3.16 µM): 126 nM | IC50 (second compound 10 µM): 80.1 nM | viability, T/C [1]: 89.8% | viability, T/C [13]: 70% | viability, T/C [2]: 33.1% | viability, T/C [14]: 17.6% | viability, T/C [15]: 5.95% | viability, T/C [16]: 4.77% | viability, T/C [3]: 78.8% | viability, T/C [17]: 64.8% | viability, T/C [4]: 39.2% | viability, T/C [18]: 25.6% | viability, T/C [19]: 8.24% | viability, T/C [20]: 4.61% | viability, T/C [5]: 74.2% | viability, T/C [21]: 63.4% | viability, T/C [6]: 40.9% | viability, T/C [22]: 22.4% | viability, T/C [23]: 6.31% | viability, T/C [24]: 4.4% | viability, T/C [7]: 85.4% | viability, T/C [25]: 75.3% | viability, T/C [8]: 32.2% | viability, T/C [26]: 27.8% | viability, T/C [27]: 7.66% | viability, T/C [28]: 4.24% | viability, T/C [9]: 70.6% | viability, T/C [29]: 55.1% | viability, T/C [10]: 32% | viability, T/C [30]: 28% | viability, T/C [31]: 7.01% | viability, T/C [32]: 1.96% | viability, T/C [11]: 60.5% | viability, T/C [33]: 49.3% | viability, T/C [12]: 28.1% | viability, T/C [34]: 20% | viability, T/C [35]: 5.65% | viability, T/C [36]: 1.85%

Nc1ccn(C2OC(CO)C(O)C2(F)F)c(=O)n1 (stereo not drawn) + Cc1[nH]c2ccc(F)cc2c1-c1nc2c3cccnc3c3ncccc3c2[nH]1
IC50 (second compound 0.0316 µM): 215 nM | IC50 (second compound 0.1 µM): 208 nM | IC50 (second compound 0.316 µM): 318 nM | IC50 (second compound 1 µM): 290 nM | IC50 (second compound 3.16 µM): 240 nM | IC50 (second compound 10 µM): 110 nM | viability, T/C [1]: 87.6% | viability, T/C [13]: 62.5% | viability, T/C [2]: 44.5% | viability, T/C [14]: 30.6% | viability, T/C [15]: 26.2% | viability, T/C [16]: 23.2% | viability, T/C [3]: 75.7% | viability, T/C [17]: 66.4% | viability, T/C [4]: 36.7% | viability, T/C [18]: 35.8% | viability, T/C [19]: 26.4% | viability, T/C [20]: 19.8% | viability, T/C [5]: 71.1% | viability, T/C [21]: 69.5% | viability, T/C [6]: 46.9% | viability, T/C [22]: 34.8% | viability, T/C [23]: 27.9% | viability, T/C [24]: 20.6% | viability, T/C [7]: 81.3% | viability, T/C [25]: 70% | viability, T/C [8]: 42.5% | viability, T/C [26]: 38.8% | viability, T/C [27]: 33.3% | viability, T/C [28]: 22.1% | viability, T/C [9]: 69.4% | viability, T/C [29]: 60.9% | viability, T/C [10]: 41.3% | viability, T/C [30]: 43.2% | viability, T/C [31]: 25.3% | viability, T/C [32]: 19.7% | viability, T/C [11]: 54.9% | viability, T/C [33]: 52.6% | viability, T/C [12]: 39.6% | viability, T/C [34]: 30.7% | viability, T/C [35]: 19.8% | viability, T/C [36]: 15.1%
